The IC50 is the concentration that gives 50% inhibition.

This note sets out measurements from ChEMBL document CHEMBL3769379, “SAR Studies of 5-Aminopyrazole-4-carboxamide Analogues as Potent and Selective Inhibitors of Toxoplasma gondii CDPK1” (ACS Med Chem Lett, 2015).

Structures are written as SMILES. Active and inactive are the calls of the source. No cut-off for these calls is given here.

Data set [1] is described as follows: Cytotoxicity against human CRL8155 cells after 48 hrs by Alamar Blue assay. In kind it is cell-based. As to conditions: crl8155, 48 h.
Data set [2] is described as follows: Solubility of the compound in PBS incubated overnight at pH 6.5 by HPLC-UV analysis. In kind it is physicochemical. The conditions noted are these: buffer.
In data set [3] the target is T1, Calmodulin-domain protein kinase 1 (Toxoplasma gondii, UniProt Q9BJF5).
T1 sequence (Q9BJF5 whole entry): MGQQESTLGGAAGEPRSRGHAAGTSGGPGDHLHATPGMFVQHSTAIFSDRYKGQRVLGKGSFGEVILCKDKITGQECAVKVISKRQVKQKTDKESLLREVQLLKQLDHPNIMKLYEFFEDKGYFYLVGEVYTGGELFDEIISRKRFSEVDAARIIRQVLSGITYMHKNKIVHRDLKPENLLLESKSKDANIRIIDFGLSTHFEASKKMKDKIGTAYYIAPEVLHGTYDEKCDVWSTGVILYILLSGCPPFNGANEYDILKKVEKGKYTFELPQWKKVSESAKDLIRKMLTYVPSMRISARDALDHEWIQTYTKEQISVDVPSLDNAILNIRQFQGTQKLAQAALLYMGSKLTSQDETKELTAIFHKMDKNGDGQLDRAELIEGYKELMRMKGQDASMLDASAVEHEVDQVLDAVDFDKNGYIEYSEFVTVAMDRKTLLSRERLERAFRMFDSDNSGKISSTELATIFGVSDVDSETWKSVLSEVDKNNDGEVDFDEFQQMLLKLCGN

Data set [4] has as its target Proto-oncogene tyrosine-protein kinase Src (Homo sapiens, UniProt P12931).
Data set [5] deals with Toxoplasma gondii. Put plainly: Antiprotozoan activity against Toxoplasma gondii infected in fibroblasts assessed as growth inhibition at low concentration after 2 days by beta-galactosidase reporter assay. In kind it is functional, organism-based.
For data set [6], the system named is Mus musculus. Put plainly: Toxicity in CF-1 mouse infected with Toxoplasma gondii RH assessed as lethargy at 20 mg/kg, po qd administered for 5 days. In kind it is organism-based. As to conditions: in vivo, 120 h.
For data set [7] the following is noted: human, plasma, 4 h.
Description: Fraction unbound in human plasma after 4 hrs by LC/MS analysis
In data set [8] the test system is Toxoplasma gondii. Put plainly: Antiprotozoan activity against Toxoplasma gondii RH infected in CF-1 mouse assessed as reduction of parasite burden in brain at 20 to 50 mg/kg, po qd administered for 5 days measured 24 hrs post last dose by quantitative RT-PCR analysis relative to control. In kind it is functional.
Data set [9] deals with Mus musculus. Nature of the data set: Toxicity in CF-1 mouse infected with Toxoplasma gondii RH assessed as mortality at 50 mg/kg, po qd administered for 5 days measured on day 5. In kind it is organism-based. As to conditions: in vivo, 120 h.
For data set [10], the system named is Mus musculus. Put plainly: Toxicity in CF-1 mouse infected with Toxoplasma gondii RH assessed as altered grooming at 20 to 50 mg/kg, po qd administered for 5 days. In kind it is organism-based. As to conditions: in vivo, 120 h.
Data set [11] relates to Mus musculus. Put plainly: Toxicity in CF-1 mouse infected with Toxoplasma gondii RH assessed as weight loss at 20 to 50 mg/kg, po qd administered for 5 days. In kind it is organism-based. The conditions noted are these: in vivo, 120 h.
The subject of data set [12] is Toxoplasma gondii. Put plainly: Antiprotozoan activity against Toxoplasma gondii overexpressing wild type CDPK1 infected in fibroblasts assessed as growth inhibition at low concentration after 2 days by beta-galactosidase reporter assay. In kind it is functional, organism-based. (In general: Reporter assays use an easily measured gene product as a stand-in for the process of interest.)

Data set [13] is described as follows: Ratio of drug level in brain to plasma in mouse at 5 mg/kg, ip by LC/MS analysis. In kind it is ADME, organism-based.
Data set [14] deals with Mus musculus. Nature of the data set: Toxicity in CF-1 mouse infected with Toxoplasma gondii RH assessed as lethargy at 20 to 50 mg/kg, po qd administered for 5 days. In kind it is organism-based. As to conditions: in vivo, 120 h.
For data set [15], the system named is Toxoplasma gondii. Nature of the data set: Antiprotozoan activity against Toxoplasma gondii RH infected in CF-1 mouse assessed as reduction of parasite burden in peritoneal fluid at 20 to 40 mg/kg, po bid administered for 5 days measured 24 hrs post last dose by hemocytometer-based fluorescence microscopy relative to control. In kind it is functional.
Data set [16] relates to Mus musculus. Nature of the data set: Toxicity in CF-1 mouse infected with Toxoplasma gondii RH assessed as weight loss at 5 to 40 mg/kg, po bid administered for 5 days. In kind it is organism-based. As to conditions: in vivo, 120 h.
In data set [17] the test system is Toxoplasma gondii. Put plainly: Antiprotozoan activity against Toxoplasma gondii RH infected in CF-1 mouse assessed as reduction of parasite burden in peritoneal fluid at 5 to 10 mg/kg, po bid administered for 5 days measured 24 hrs post last dose by hemocytometer-based fluorescence microscopy. In kind it is functional, organism-based.
Data set [18] relates to Mus musculus. Nature of the data set: Toxicity in CF-1 mouse infected with Toxoplasma gondii RH assessed as altered grooming at 5 to 40 mg/kg, po bid administered for 5 days. In kind it is organism-based. The conditions noted are these: in vivo, 120 h.
The subject of data set [19] is Mus musculus. Nature of the data set: Toxicity in CF-1 mouse infected with Toxoplasma gondii RH assessed as lethargy at 5 to 40 mg/kg, po bid administered for 5 days. In kind it is organism-based. As to conditions: in vivo, 120 h.

Sequence of Proto-oncogene tyrosine-protein kinase Src (P12931 2-536 limits assumed): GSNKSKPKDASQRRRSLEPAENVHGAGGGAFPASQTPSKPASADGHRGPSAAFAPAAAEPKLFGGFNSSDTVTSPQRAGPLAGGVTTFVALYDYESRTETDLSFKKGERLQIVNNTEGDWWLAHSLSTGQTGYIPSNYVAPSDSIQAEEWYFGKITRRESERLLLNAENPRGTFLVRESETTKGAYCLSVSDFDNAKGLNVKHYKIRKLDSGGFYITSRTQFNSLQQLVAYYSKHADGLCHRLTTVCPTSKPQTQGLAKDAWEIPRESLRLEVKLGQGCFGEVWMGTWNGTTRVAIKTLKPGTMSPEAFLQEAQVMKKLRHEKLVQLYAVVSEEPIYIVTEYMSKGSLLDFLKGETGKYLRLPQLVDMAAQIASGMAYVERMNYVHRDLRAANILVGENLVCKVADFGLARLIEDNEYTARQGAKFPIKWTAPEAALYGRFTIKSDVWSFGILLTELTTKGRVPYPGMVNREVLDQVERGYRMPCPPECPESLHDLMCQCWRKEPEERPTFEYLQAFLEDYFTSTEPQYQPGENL

In turn, `CCCOc1ccc2cc(-c3nn(C(C)(C)C)c(N)c3C(N)=O)cnc2c1` displayed an Activity in data set [1] greater than 40 µM.
Turning to `CCOc1ccc2cc(-c3nn(C4CCCCCC4)c(N)c3C(N)=O)cnc2c1`, the Activity in data set [1] is greater than 40 µM.
`CC(C)(C)n1nc(-c2cnc3cc(OC4CCC4)ccc3c2)c(C(N)=O)c1N`: the solubility entry in data set [2] is “Insoluble”. Further, the Activity in data set [1] was greater than 40 µM. The compound also returned an IC50 in data set [3] of 7 nM.
As for `CC(C)(C)n1nc(-c2cnc3cc(OCC4CC4)ccc3c2)c(C(N)=O)c1N`, the IC50 in [4] is greater than 10000 nM. This compound also showed an Activity in data set [1] greater than 40 µM.
As to `CCOc1ccc2cc(-c3nn(C(C)CO)c(N)c3C(N)=O)cnc2c1` (centres undefined), half-maximal inhibition in [3] (IC50) required 26 nM. In other words, the double-digit nanomolar range.
On to `CCOc1ccc2cc(-c3nn(CC(C)(C)CO)c(N)c3C(N)=O)ccc2n1`, for which, in data set [2], the solubility entry was “soluble”. The compound also gave an Activity in [1] greater than 40 µM.
Take `CCOc1ccc2cc(-c3nn(CC4CC4)c(N)c3C(N)=O)ccc2n1`: the Activity in data set [1] was greater than 40 µM. The compound further returned an IC50 in data set [3] of 7.9 nM.
In turn, `CCOc1ccc2cc(-c3nn(C4CCCC4)c(N)c3C(N)=O)cnc2c1` yielded an Activity in [1] greater than 40 µM.
For `CC(C)(C)n1nc(-c2ccc3nc(OC4CCC4)ccc3c2)c(C(N)=O)c1N`, the Activity in [1] is greater than 40 µM. In data set [3], half-maximal inhibition (IC50) required 12 nM.
In data set [1], `CCOc1ccc2cc(-c3nn(C4CCC4)c(N)c3C(N)=O)cnc2c1` came in with an Activity greater than 40 µM.
Turning to `CCOc1ccc2cc(-c3nn(CC4CC4)c(N)c3C(N)=O)cnc2c1`, in [1], the Activity is greater than 40 µM. The IC50 in [3] worked out at 15 nM.
On to `CC(C)(C)n1nc(-c2ccc3nc(OC4CC4)ccc3c2)c(C(N)=O)c1N`, for which the “growth inhibition (GI)” value in the data set on Toxoplasma gondii [5] and in the data set with Toxoplasma gondii [12] was “inactive” each time. For the same compound, the Activity result in the data set with Mus musculus [6] is “Non-toxic”; in data set [1] it was greater than 40 µM; in the data set on Mus musculus [9], “Toxic”; with Mus musculus [10] it was “Non-toxic”; in the data set with Mus musculus [11], “Non-toxic”. The compound further came in with a Fu in data set [7] of 88%. For the same compound, the “fold change (FC)” value with Toxoplasma gondii [8] is greater than 5. The same compound returned an IC50 in [3] of 4.6 nM. In data set [13], the BPR came out at 43%.
The compound `CCOc1ccc2cc(-c3nn(C(C)(C)C)c(N)c3C(N)=O)ccc2n1` came in with an Activity in data set [1] greater than 40 µM.
In data set [1], `CCOc1ccc2cc(-c3nn(C4CCCCC4)c(N)c3C(N)=O)ccc2n1` returned an Activity greater than 40 µM. Also, the midpoint of inhibition in data set [3], the IC50, lay at 5.5 nM.
In data set [3], `CCOc1ccc2cc(-c3nn(CC(C)(C)O)c(N)c3C(N)=O)cnc2c1` came in with an IC50 of 113 nM.
`CC(C)(C)n1nc(-c2cnc3cc(OC4CC4)ccc3c2)c(C(N)=O)c1N`: the “growth inhibition (GI)” value with Toxoplasma gondii [5] and in the data set with Toxoplasma gondii [12] was “inactive” each time. Further, the solubility entry in data set [2] is “soluble”. The Activity in data set [1] was greater than 40 µM; in the data set with Mus musculus [14] it was “Non-toxic”; in the data set with Mus musculus [10], “Non-toxic”; with Mus musculus [11], “Non-toxic”. For the same compound, in [13], the BPR came out at 16%.
For the compound `CCOc1ccc2cc(-c3nn(C(C)(C)C)c(N)c3C(N)=O)cnc2c1`, the solubility entry in data set [2] is on record as “Insoluble”. In addition, the Fu in [7] worked out at 57%. Moreover, the “fold change (FC)” value in the data set with Toxoplasma gondii [15] is greater than 10. For the same compound, the Activity result in the data set on Mus musculus [16], in the data set with Mus musculus [18] and with Mus musculus [19] was “Non-toxic” throughout. In addition, the outcome in the data set on Toxoplasma gondii [17] was Active. Besides, the BPR in data set [13] is listed as 15.8%.
As to `CCOc1ccc2cc(-c3nn(C(C)C)c(N)c3C(N)=O)ccc2n1`, in [1], the Activity is greater than 40 µM. The IC50 in data set [3] came to 6.5 nM.
In data set [4], `CCOc1ccc2cc(-c3nn(CC(C)(C)CO)c(N)c3C(N)=O)cnc2c1` displayed an IC50 greater than 10000 nM. The compound also displayed an Activity in [1] greater than 40 µM.
`CC(C)(C)n1nc(-c2cnc3cc(F)ccc3c2)c(C(N)=O)c1N`: in data set [1], the Activity was greater than 40 µM.
In [1], `CC(C)Oc1ccc2cc(-c3nn(C(C)(C)C)c(N)c3C(N)=O)cnc2c1` registered an Activity greater than 40 µM. For the same compound, it took 16 nM to reach half-maximal inhibition in [3] (IC50).
Consider `CC(C)(C)n1nc(-c2cnc3cc(OC(F)(F)F)ccc3c2)c(C(N)=O)c1N`, for which the IC50 in data set [3] stood at 39 nM.
The same measure, in the same setting: for `CCOc1ccc2cc(-c3nn(C4CCCCCC4)c(N)c3C(N)=O)ccc2n1` the value was 17 nM.
With `COc1ccc2cc(-c3nn(C(C)(C)C)c(N)c3C(N)=O)cnc2c1`, the Activity in data set [1] was greater than 40 µM.
